Measurements from paper PMC400651 (Breast Cancer Research, 2003).

Target: aryl hydrocarbon receptor (AhR) (Homo sapiens, UniProt P35869)
Experiment: [3H]TCDD radioligand competition in whole T47D cells
Format: cell-based

Chain of aryl hydrocarbon receptor (AhR) (P35869 11-848): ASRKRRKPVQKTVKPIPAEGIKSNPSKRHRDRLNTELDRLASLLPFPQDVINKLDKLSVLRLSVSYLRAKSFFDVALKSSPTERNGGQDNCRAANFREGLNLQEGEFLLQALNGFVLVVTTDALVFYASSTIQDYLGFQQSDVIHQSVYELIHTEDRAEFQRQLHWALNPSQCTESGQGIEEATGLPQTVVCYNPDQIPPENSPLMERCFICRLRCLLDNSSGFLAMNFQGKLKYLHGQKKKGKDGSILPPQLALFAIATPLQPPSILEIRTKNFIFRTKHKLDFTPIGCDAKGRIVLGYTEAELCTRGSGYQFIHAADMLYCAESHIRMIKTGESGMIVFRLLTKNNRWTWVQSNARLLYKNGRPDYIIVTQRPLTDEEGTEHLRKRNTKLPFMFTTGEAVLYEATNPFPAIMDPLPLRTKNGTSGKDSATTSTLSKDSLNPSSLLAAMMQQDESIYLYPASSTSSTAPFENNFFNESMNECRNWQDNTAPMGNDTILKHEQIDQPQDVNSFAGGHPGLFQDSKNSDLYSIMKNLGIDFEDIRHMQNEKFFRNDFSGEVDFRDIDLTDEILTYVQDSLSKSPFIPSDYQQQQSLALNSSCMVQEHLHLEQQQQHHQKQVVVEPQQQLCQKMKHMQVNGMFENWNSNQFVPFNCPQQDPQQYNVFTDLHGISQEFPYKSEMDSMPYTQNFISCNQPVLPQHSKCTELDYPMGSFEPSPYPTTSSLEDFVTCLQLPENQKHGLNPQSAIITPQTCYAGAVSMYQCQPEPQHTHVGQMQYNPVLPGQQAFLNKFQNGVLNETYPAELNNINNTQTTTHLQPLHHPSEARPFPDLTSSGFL

IC50: 158 nM
Structure (SMILES): O=C(O)/C=C/c1ccc(O)c(O)c1 [caffeic acid]
